# Reference: PubChem BioAssay (NCI)
#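 Exposure lasted 48 hours, with cells grown in 96-well plates and compounds tested at five concentrations. The concentration for full growth arrest is given as TGI.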
# How the values were obtained:
# Assay in all cases: DTP human tumour cell line panel, 48 h
# SK-MEL-2 melanoma = system: SK-MEL-2 melanoma
# SNB-19 CNS = system: SNB-19 CNS
# 786-0 renal = system: 786-0 renal
# UACC-62 melanoma = system: UACC-62 melanoma
# HOP-18 NSCLC = system: HOP-18 NSCLC
# SK-OV-3 ovarian = system: SK-OV-3 ovarian
# SF-295 CNS = system: SF-295 CNS
# NCI-H23 lung = system: NCI-H23 lung
# NCI-H460 lung = system: NCI-H460 lung
# UO-31 renal = system: UO-31 renal
# SN12C renal = system: SN12C renal
# KM12 colon = system: KM12 colon
# COLO 205 colon = system: COLO 205 colon
# U251 CNS = system: U251 CNS
# RXF 393 renal = system: RXF 393 renal
# HOP-62 NSCLC = system: HOP-62 NSCLC
# DLD-1 colon = system: DLD-1 colon
# SK-MEL-28 melanoma = system: SK-MEL-28 melanoma
# SF-268 CNS = system: SF-268 CNS
# M14 melanoma = system: M14 melanoma
# SR leukemia = system: SR leukemia
# OVCAR-5 ovarian = system: OVCAR-5 ovarian
# ACHN renal = system: ACHN renal
# RPMI-8226 leukemia = system: RPMI-8226 leukemia
# IGROV1 ovarian = system: IGROV1 ovarian
# LOX IMVI melanoma = system: LOX IMVI melanoma
# DMS 273 small cell lung = system: DMS 273 small cell lung
# A549 NSCLC = system: A549 NSCLC
# EKVX NSCLC = system: EKVX NSCLC
# SNB-75 CNS = system: SNB-75 CNS
# CAKI-1 renal = system: CAKI-1 renal
# MOLT-4 leukemia = system: MOLT-4 leukemia
# SW-620 colon = system: SW-620 colon
# MALME-3M melanoma = system: MALME-3M melanoma
# K-562 leukemia = system: K-562 leukemia
# SK-MEL-5 melanoma = system: SK-MEL-5 melanoma
# CCRF-CEM leukemia = system: CCRF-CEM leukemia
# SNB-78 CNS = system: SNB-78 CNS
# OVCAR-4 ovarian = system: OVCAR-4 ovarian
# NCI-H522 lung = system: NCI-H522 lung
# OVCAR-8 ovarian = system: OVCAR-8 ovarian
# NCI-H226 lung = system: NCI-H226 lung
# M19-MEL melanoma = system: M19-MEL melanoma
# XF 498 CNS = system: XF 498 CNS
# HCT-116 colon = system: HCT-116 colon
# HCT-15 colon = system: HCT-15 colon
# TK-10 renal = system: TK-10 renal
# HCC-2998 colon = system: HCC-2998 colon
# HL-60(TB) leukemia = system: HL-60(TB) leukemia
# HT29 colon = system: HT29 colon
# LXFL 529 NSCLC = system: LXFL 529 NSCLC
# KM20L2 colon = system: KM20L2 colon
# OVCAR-3 ovarian = system: OVCAR-3 ovarian
# UACC-257 melanoma = system: UACC-257 melanoma
# HOP-92 NSCLC = system: HOP-92 NSCLC
# MDA-MB-435 = system: MDA-MB-435
# SF-539 CNS = system: SF-539 CNS
# T-47D breast = system: T-47D breast
# MDA-N = system: MDA-N
# HS 578T breast = system: HS 578T breast
# NCI/ADR-RES ovarian = system: NCI/ADR-RES ovarian
# DMS 114 small cell lung = system: DMS 114 small cell lung
# A498 renal = system: A498 renal
# PC-3 prostate = system: PC-3 prostate
# DU-145 prostate = system: DU-145 prostate
# MDA-MB-231 breast = system: MDA-MB-231 breast
# MCF7 breast = system: MCF7 breast
smiles,measurement,setting,value
COc1ccc(C2C(Cl)C(=O)N2NC(=O)Cc2ccccc2)cc1 (stereo not drawn),TGI,SK-MEL-2 melanoma,> 100 µM
same,TGI,SNB-19 CNS,> 100 µM
same,TGI,786-0 renal,> 100 µM
same,TGI,UACC-62 melanoma,> 100 µM
same,TGI,HOP-18 NSCLC,> 100 µM
same,TGI,SK-OV-3 ovarian,> 100 µM
same,TGI,SF-295 CNS,> 100 µM
same,TGI,NCI-H23 lung,> 100 µM
same,TGI,NCI-H460 lung,> 100 µM
same,TGI,UO-31 renal,> 100 µM
same,TGI,SN12C renal,> 100 µM
same,TGI,KM12 colon,> 100 µM
same,TGI,COLO 205 colon,> 100 µM
same,TGI,U251 CNS,> 100 µM
same,TGI,RXF 393 renal,> 100 µM
same,TGI,HOP-62 NSCLC,> 100 µM
same,TGI,DLD-1 colon,> 100 µM
same,TGI,SK-MEL-28 melanoma,> 100 µM
same,TGI,SF-268 CNS,> 100 µM
same,TGI,M14 melanoma,> 100 µM
same,TGI,SR leukemia,> 100 µM
same,TGI,OVCAR-5 ovarian,> 100 µM
same,TGI,ACHN renal,> 100 µM
same,TGI,RPMI-8226 leukemia,> 100 µM
same,TGI,IGROV1 ovarian,> 100 µM
same,TGI,LOX IMVI melanoma,> 100 µM
same,TGI,DMS 273 small cell lung,> 100 µM
same,TGI,A549 NSCLC,> 100 µM
same,TGI,EKVX NSCLC,> 100 µM
same,TGI,SNB-75 CNS,> 100 µM
same,TGI,CAKI-1 renal,> 100 µM
same,TGI,MOLT-4 leukemia,> 100 µM
same,TGI,SW-620 colon,> 100 µM
same,TGI,MALME-3M melanoma,> 100 µM
same,TGI,K-562 leukemia,> 100 µM
same,TGI,SK-MEL-5 melanoma,> 100 µM
same,TGI,CCRF-CEM leukemia,> 100 µM
same,TGI,SNB-78 CNS,> 100 µM
same,TGI,OVCAR-4 ovarian,> 100 µM
same,TGI,NCI-H522 lung,> 100 µM
same,TGI,OVCAR-8 ovarian,> 100 µM
same,TGI,NCI-H226 lung,> 100 µM
same,TGI,M19-MEL melanoma,> 100 µM
same,TGI,XF 498 CNS,> 100 µM
same,TGI,HCT-116 colon,> 100 µM
same,TGI,HCT-15 colon,> 100 µM
same,TGI,TK-10 renal,> 100 µM
same,TGI,HCC-2998 colon,> 100 µM
same,TGI,HL-60(TB) leukemia,> 100 µM
same,TGI,HT29 colon,> 100 µM
same,TGI,LXFL 529 NSCLC,> 100000 nM
same,TGI,KM20L2 colon,> 100 µM
same,TGI,OVCAR-3 ovarian,> 100 µM
same,TGI,UACC-257 melanoma,> 100000 nM
Cc1cc2c(s1)C(=O)c1sccc1C2=O,TGI,HOP-92 NSCLC,2970 nM
same,TGI,SK-MEL-2 melanoma,1.33 µM
same,TGI,MDA-MB-435,318 nM
same,TGI,SNB-19 CNS,3.04 µM
same,TGI,SF-539 CNS,622 nM
same,TGI,786-0 renal,3.26 µM
same,TGI,UACC-62 melanoma,0.524 µM
same,TGI,HOP-18 NSCLC,2.81 µM
same,TGI,SK-OV-3 ovarian,4.47 µM
same,TGI,SF-295 CNS,1.15 µM
same,TGI,NCI-H23 lung,0.36 µM
same,TGI,NCI-H460 lung,3.23 µM
same,TGI,T-47D breast,3.02 µM
same,TGI,MDA-N,308 nM
same,TGI,HS 578T breast,2520 nM
same,TGI,UO-31 renal,2.29 µM
same,TGI,SN12C renal,1.25 µM
same,TGI,KM12 colon,3 µM
same,TGI,NCI/ADR-RES ovarian,1640 nM
same,TGI,COLO 205 colon,3.36 µM
same,TGI,U251 CNS,2.55 µM
same,TGI,RXF 393 renal,2.46 µM
same,TGI,DLD-1 colon,3.36 µM
same,TGI,SK-MEL-28 melanoma,0.377 µM
same,TGI,SF-268 CNS,2.09 µM
same,TGI,M14 melanoma,0.356 µM
same,TGI,DMS 114 small cell lung,600 nM
same,TGI,SR leukemia,> 100 µM
same,TGI,A498 renal,3.17 µM
same,TGI,OVCAR-5 ovarian,3.29 µM
same,TGI,ACHN renal,2.23 µM
same,TGI,RPMI-8226 leukemia,> 25.5 µM
same,TGI,IGROV1 ovarian,3.05 µM
same,TGI,PC-3 prostate,4.93 µM
same,TGI,LOX IMVI melanoma,0.422 µM
same,TGI,DMS 273 small cell lung,2.62 µM
same,TGI,A549 NSCLC,2.03 µM
same,TGI,EKVX NSCLC,3.32 µM
same,TGI,DU-145 prostate,3.23 µM
same,TGI,SNB-75 CNS,1.18 µM
same,TGI,CAKI-1 renal,3.17 µM
same,TGI,MOLT-4 leukemia,> 22.4 µM
same,TGI,MDA-MB-231 breast,2890 nM
same,TGI,SW-620 colon,0.719 µM
same,TGI,MALME-3M melanoma,0.311 µM
same,TGI,SK-MEL-5 melanoma,0.301 µM
same,TGI,CCRF-CEM leukemia,> 100 µM
same,TGI,OVCAR-4 ovarian,1.45 µM
same,TGI,NCI-H522 lung,1.38 µM
same,TGI,OVCAR-8 ovarian,1.56 µM
same,TGI,NCI-H226 lung,3.37 µM
same,TGI,XF 498 CNS,2.92 µM
same,TGI,HCT-116 colon,2.46 µM
same,TGI,HCT-15 colon,2.52 µM
same,TGI,TK-10 renal,6.91 µM
same,TGI,HCC-2998 colon,3.15 µM
same,TGI,HL-60(TB) leukemia,> 100 µM
same,TGI,MCF7 breast,2780 nM
same,TGI,HT29 colon,4.3 µM
same,TGI,LXFL 529 NSCLC,2500 nM
same,TGI,KM20L2 colon,4.75 µM
same,TGI,OVCAR-3 ovarian,2.19 µM
same,TGI,UACC-257 melanoma,385 nM
CC(=O)/C=C/c1ccc(C2CC(C)=Nc3c(ccc4c3C(=O)c3ccccc3C4=O)N2)cc1 (stereo not drawn),TGI,HOP-92 NSCLC,> 100000 nM
same,TGI,SK-MEL-2 melanoma,> 100 µM
same,TGI,SNB-19 CNS,> 100 µM
same,TGI,SF-539 CNS,> 100000 nM
same,TGI,786-0 renal,> 100 µM
same,TGI,UACC-62 melanoma,> 100 µM
same,TGI,HOP-18 NSCLC,> 100 µM
same,TGI,SK-OV-3 ovarian,> 100 µM
same,TGI,SF-295 CNS,> 100 µM
same,TGI,NCI-H23 lung,> 100 µM
same,TGI,NCI-H460 lung,> 100 µM
same,TGI,UO-31 renal,> 100 µM
same,TGI,SN12C renal,> 100 µM
same,TGI,KM12 colon,> 23.6 µM
same,TGI,COLO 205 colon,> 100 µM
same,TGI,U251 CNS,> 100 µM
same,TGI,RXF 393 renal,> 100 µM
same,TGI,HOP-62 NSCLC,> 100 µM
same,TGI,DLD-1 colon,> 100 µM
same,TGI,SK-MEL-28 melanoma,> 100 µM
same,TGI,SF-268 CNS,> 100 µM
same,TGI,M14 melanoma,> 100 µM
same,TGI,DMS 114 small cell lung,> 100000 nM
same,TGI,SR leukemia,> 100 µM
same,TGI,A498 renal,> 100 µM
same,TGI,OVCAR-5 ovarian,> 100 µM
same,TGI,ACHN renal,> 100 µM
same,TGI,RPMI-8226 leukemia,> 100 µM
same,TGI,IGROV1 ovarian,> 100 µM
same,TGI,LOX IMVI melanoma,> 100 µM
same,TGI,DMS 273 small cell lung,> 100 µM
same,TGI,A549 NSCLC,> 100 µM
same,TGI,EKVX NSCLC,> 100 µM
same,TGI,SNB-75 CNS,> 100 µM
same,TGI,CAKI-1 renal,> 83.5 µM
same,TGI,MOLT-4 leukemia,> 100 µM
same,TGI,SW-620 colon,> 100 µM
same,TGI,MALME-3M melanoma,> 100 µM
same,TGI,K-562 leukemia,> 100 µM
same,TGI,SK-MEL-5 melanoma,> 100 µM
same,TGI,CCRF-CEM leukemia,> 100 µM
same,TGI,SNB-78 CNS,> 100 µM
same,TGI,OVCAR-4 ovarian,> 100 µM
same,TGI,NCI-H522 lung,> 100 µM
same,TGI,OVCAR-8 ovarian,> 100 µM
same,TGI,NCI-H226 lung,> 100 µM
same,TGI,M19-MEL melanoma,> 100 µM
same,TGI,XF 498 CNS,> 100 µM
same,TGI,HCT-116 colon,> 100 µM
same,TGI,HCT-15 colon,> 100 µM
same,TGI,TK-10 renal,> 100 µM
same,TGI,HCC-2998 colon,> 100 µM
same,TGI,HL-60(TB) leukemia,> 100 µM
same,TGI,HT29 colon,> 100 µM
same,TGI,KM20L2 colon,> 100 µM
same,TGI,OVCAR-3 ovarian,> 100 µM
